Patent US20050153932A1, “Controlled muscle relaxation” (priority 2003, published 2005)
Several values for one entry are separate records, joined by “and”; a condition that tells them apart may be missing. Equal entries are not always repeated. Where two headings read alike, the source gives them in different places.

What was measured:
[1] = system: M. adductor pollicis contractions; experiment: Rocuronium-induced block of M. adductor pollicis contractions (TOF stimulation) and effect of Org 25969 in anaesthetised Rhesus monkeys; format: in vivo, Rhesus monkey
Procedure: (§1) • T1: first twitch: amplitude of the first response to TOF stimulation, expressed as percentage of control T1 (%). • T4/T1 ratio: the ratio of T4 over T1 (within one TOF stimulus) expressed as decimals.
Female Rhesus monkeys were starved overnight and sedated with 10 mg·kg^−1 ketamine i.m., followed by i.v. injection of 25 mg·kg^−1 pentobarbitone sodium and subsequent infusion of 5-10 mg·kg^−1hr^−1. The animals were intubated and ventilated with a mixture of oxygen and nitrous oxide (2:3), using a ventilator. The expired CO2 level was measured using a capnograph. The tidal volume was adjusted to obtain a CO2 level of approximately 4.5%. Oxygen saturation was measured via a probe on the earlobe using a pulse oxymeter. Blood pressure was measured non-invasively with a cuff placed on the tail. The ECG was recorded and heart rate was measured. Rectal temperature was measured and body temperature was kept at 37-38° C. using a heating blanket. The right hand and right arm of the animal were fixed to a frame using surgical tape. The thumb was connected to a force transducer. A pre-load of 200-500 mN was applied. Two needle electrode were placed near the N. ulnaris and the nerve was stimulated with train-of-four pulses (pulse duration: 2 ms, train-frequency: 0.07 Hz). At the end of the experiment, the animals were allowed to recover from anesthesia. Appropriate recovery care was given to all animals. Two groups of monkeys were used to assess the reversal effects of Org 25969 against the neuromuscular blocking agents rocuronium (Esmeron®/Zemuron®) and vecuronium (Norcuron®). In the first group, animals initially received an intravenous bolus injection of a 1×ED90 dose of rocuronium bromide to induce neuromuscular block, followed by spontaneous recovery of the twitches. After complete recovery of the twitches, each group received a second and larger 5×ED90 dose of rocuronium followed by spontaneous recovery in one subgroup, whereas the other subgroup received an intravenous bolus dose of 1150 nmol·kg^−1 Org 25969 as soon as all twitches had disappeared. In the vecuronium groups of animals, the same protocol was used, but rocuronium was replaced by vecuronium. Rocuronium bromide and vecuronium bromide were dissolved in a citric acid/phosphate/mannitol buffer (pH 4.0). Org 25969 was dissolved in saline.

[2] = system: M. gastrocnemius contractions; format: in vivo, guinea pig; details: for 1× ED90 dose: rocuronium i.v. bolus, established in each animal
Procedure: Male healthy mature guinea pigs were anesthetised with 30 mg·kg^−1 pentobarbitone and 900 mg·kg^−1 urethane i.p. The guinea pigs were artificially ventilated with room air (4.5-5.5 ml; 50-60 strokes/min). Catheters were placed in both jugular veins and a third catheter was placed in the carotid artery for continuous monitoring of arterial blood pressure and the taking of blood samples for blood gas analysis.
Heart rate was derived from the blood pressure signal.
Body temperature was maintained at 37-38° C. using an electrical heating pad.
The gastrocnemius muscle was dissected free from surrounding muscles and set up for recording twitch tension using a force transducer. A resting tension of 250-300 mN was applied to the muscle. A stimulation electrode was placed around the sciatic nerve, which was crushed centrally to the electrode to prevent reflex responses. The gastrocnemius muscle was stimulated indirectly via the sciatic nerve with rectangular pulses of 0.5 ms duration at 10 s (0.1 Hz) intervals at a supra maximal voltage using a Grass S88 Stimulator.
Animals were allowed to stabilise for […] before the start of the experiment. Firstly, the 1×ED90 blocking dose of rocuronium was established in each animal followed by complete spontaneous recovery of muscle contractions. After at least 30 minutes, all animals received a 10×ED90 blocking dose of rocuronium by intravenous bolus injection. One minute after bolus injection of rocuronium, the animals received either 2300 nmol·kg^−1 Org 25969 in saline or an equivalent volume of saline. Time to 25%, 50%, 75% and 90% recovery of twitch height was measured from the moment of injection of Org 25969 or saline, respectively.
Rocuronium bromide was dissolved in a pH 4.0 citric acid/phosphate/mannitol buffer. Org 25969 was dissolved in saline.

[3] = system: deep block induced by rocuronium; format: in vivo, human
Excerpt: A simple method of monitoring neuromuscular function is the train-of-four (TOF) technique using an acceleromyograph (TOF Watch®). Four electrical stimuli each 0.5 seconds apart (and for instance applied at 12-15 seconds intervals) are applied along the course of the ulnar nerve in the arm. Stimulation of the ulnar nerve causes contraction of the adductor pollicis muscle and movement of the thumb. Response can be noted visually or, more accurately, by placing a finger lightly on the surface of the hand over the muscle to feel the contraction. A baseline response check is done to ensure that there are four muscle twitches in response to the four stimuli. Normal baseline and full recovery is indicated by four twitches of equal strenght. As the number of acetylcholine receptors occupied by NMBAs increases, the number of twitches decreases, no twitches indicating total paralysis.
as §1
10 Volunteers, which were enrolled in a phase 1 trial with the objective to investigate the safety, pharmacokinetics and efficacy of Org 25969, received general anesthesia using i.v. administration of remifentanil followed by propofol (Target controlled Infusion—Diprifusor®) for induction and maintenance. After induction of anesthesia and set-up of the TOF-Watch®SX subjects received a i.v. bolus dose of 0.6 mg·kg^−1 rocuronium bromide (Esmeron®) given by hand over 5 seconds. Between the administration of rocuronium and the administration of Org 25969, a laryngeal mask was applied or tracheal intubation was performed to ventilate the subjects. At 3 minutes after rocuronium bromide administration (i.e. deep block) either placebo (commercially physiological salt solution, 0.9% sodium chloride) or Org 25969 (25 mg/ml) were given as a bolus dose into a fast running infusion in the forearm. Six dose levels of Org 25969 were given to these 10 volunteers. Neuromuscular block was measured using the TOF-Watch-SX® acceleromyograph for at least 90 minutes after administration of Org 25969 or placebo.

[4] = 5× ED90 rocuronium + 1150 nmol · kg^−1 Org 25969 i.v.
[5] = 5× ED90 rocuronium in the subgroup given 1150 nmol · kg^−1 Org 25969 once all twitches had disappeared
[6] = 10× ED90 rocuronium, 2300 nmol · kg^−1 Org 25969 i.v. one minute later (group 2), time from injection of Org 25969
[7] = 1× ED90 rocuronium, spontaneous recovery
[8] = 5× ED90 rocuronium, spontaneous recovery
[9] = 5× ED90 rocuronium, spontaneous recovery subgroup
[10] = 1× ED90 rocuronium i.v., spontaneous recovery, group 1
[11] = 1× ED90 rocuronium i.v., spontaneous recovery, group 2
[12] = 10× ED90 rocuronium i.v. bolus, group 1
[13] = 10× ED90 rocuronium i.v. bolus, group 2
[14] = 10× ED90 rocuronium, saline one minute later (group 1), time from injection of saline

O=C(O)CCSC[C@H]1O[C@@H]2O[C@H]3[C@H](O)[C@@H](O)[C@@H](O[C@H]4[C@H](O)[C@@H](O)[C@@H](O[C@H]5[C@H](O)[C@@H](O)[C@@H](O[C@H]6[C@H](O)[C@@H](O)[C@@H](O[C@H]7[C@H](O)[C@@H](O)[C@@H](O[C@H]8[C@H](O)[C@@H](O)[C@@H](O[C@H]9[C@H](O)[C@@H](O)[C@@H](O[C@H]1[C@H](O)[C@H]2O)O[C@@H]9CSCCC(=O)O)O[C@@H]8CSCCC(=O)O)O[C@@H]7CSCCC(=O)O)O[C@@H]6CSCCC(=O)O)O[C@@H]5CSCCC(=O)O)O[C@@H]4CSCCC(=O)O)O[C@@H]3CSCCC(=O)O [Org 25969, 6-per-deoxy-6-per-(2-carboxyethyl)thio-γ-cyclodextrin]
effectiveness against rocuronium compared with vecuronium (in words) ([1]; 1150 nmol·kg^−1 Org 25969, 5×ED90 of either blocker): more effective against a 5×ED90 dose of rocuronium
reversal of rocuronium-induced neuromuscular block (in words) ([1]; 1150 nmol·kg^−1 Org 25969 i.v. after 5×ED90 rocuronium): rapid reversal
0.50-0.90 TOF ratio interval [1, 4]: 4.0 ± 0.9 min
25-75% recovery index [1, 4]: 3.1 ± 0.8 min
time to 25% recovery of T1 [1, 4]: 3.8 ± 0.7 min
time to 90% recovery of T1 [1, 4]: 9.5 ± 1.9 min
time to TOF ratio 0.90 [1, 4]: 7.9 ± 1.8 min
block [1, 5]: 100.0 ± 0.0%
onset time [1, 5]: 0.5 ± 0.1 min
25-75% recovery index ([2]; 10× ED90 rocuronium, 2300 nmol · kg^−1 Org 25969 i.v. one minute later (group 2)): 1.3 min and 1.3 ± 0.4 min
time to 25% recovery [2, 6]: 3.7 ± 0.4 min
time to 90% recovery [2, 6]: 8.5 min and 8.5 ± 2.2 min
Time to TOF ratio 0.9 ([3]; Org 25969 0.1 mg · kg^−1 i.v. bolus 3 minutes after 0.6 mg·kg^−1 rocuronium bromide, individual volunteer): 43 min
Time to TOF ratio 0.9 ([3]; Org 25969 0.5 mg · kg^−1 i.v. bolus 3 minutes after 0.6 mg·kg^−1 rocuronium bromide, individual volunteer): 71 min
Time to TOF ratio 0.9 ([3]; Org 25969 1.0 mg · kg^−1 i.v. bolus 3 minutes after 0.6 mg·kg^−1 rocuronium bromide, individual volunteers): 23 min and 31 min
Time to TOF ratio 0.9 ([3]; Org 25969 2.0 mg · kg^−1 i.v. bolus 3 minutes after 0.6 mg·kg^−1 rocuronium bromide, individual volunteers): 13 min and 17 min
Time to TOF ratio 0.9 ([3]; Org 25969 4.0 mg · kg^−1 i.v. bolus 3 minutes after 0.6 mg·kg^−1 rocuronium bromide, individual volunteers): 2.5 min and 3.2 min
Time to TOF ratio 0.9 ([3]; Org 25969 8.0 mg · kg^−1 i.v. bolus 3 minutes after 0.6 mg·kg^−1 rocuronium bromide, individual volunteers): ≤ 2 min and 1.0 min and 1.2 min
re-curarisation ([3]; human, in vivo): no signs of re-curarisation

C=CC[N+]1([C@H]2C[C@H]3[C@@H]4CC[C@H]5C[C@H](O)[C@@H](N6CCOCC6)C[C@]5(C)[C@H]4CC[C@]3(C)[C@H]2OC(C)=O)CCCC1 [rocuronium, rocuronium bromide]
onset time ([1]; 1× ED90 rocuronium): 1.2 ± 0.0 min
0.50-0.90 TOF ratio interval [1, 7]: 2.6 ± 0.2 min
25-75% recovery index [1, 7]: 3.3 ± 0.4 min
time to 25% recovery of T1 [1, 7]: 4.5 ± 0.6 min
time to 90% recovery of T1 [1, 7]: 9.6 ± 0.9 min
time to TOF ratio 0.90 [1, 7]: 8.4 ± 0.9 min
block ([1]; 1× ED90 rocuronium, Mean ± SEM, n = 4): 93.3 ± 1.9%
0.50-0.90 TOF ratio interval [1, 8]: 6.9 ± 0.8 min
25-75% recovery index [1, 8]: 6.0 ± 0.6 min
time to 25% recovery of T1 [1, 8]: 18.5 ± 2.1 min
time to 90% recovery of T1 [1, 8]: 27.7 ± 3.2 min
time to TOF ratio 0.90 [1, 8]: 28.2 ± 3.4 min
block [1, 9]: 100.0 ± 0.0%
onset time [1, 9]: 0.7 ± 0.2 min
25-75% recovery index [2, 10]: 3.5 ± 0.4 min
max recovery [2, 10]: 101.1 ± 1.3%
max recovery after (time) [2, 10]: 15.1 ± 2.1 min
time to 25% recovery [2, 10]: 5.1 ± 0.7 min
time to 90% recovery [2, 10]: 10.7 ± 1.5 min
25-75% recovery index [2, 11]: 2.3 ± .5 min
max recovery [2, 11]: 101.4 ± 2.8%
max recovery after (time) [2, 11]: 12.5 ± 1.7 min
time to 25% recovery [2, 11]: 3.8 ± 0.5 min
time to 90% recovery [2, 11]: 8.7 ± 1.4 min
onset time ([2]; 1× ED90 rocuronium i.v., group 1): 2.6 ± 0.3 min
max block ([2]; 1× ED90 rocuronium i.v., group 1, Mean ± SEM, n = 6): 89.7 ± 2.4%
onset time ([2]; 1× ED90 rocuronium i.v., group 2): 2.1 ± 0.3 min
max block ([2]; 1× ED90 rocuronium i.v., group 2, Mean ± SEM, n = 6): 91.0 ± 2.5%
max block [2, 12]: 100.0 ± 0.0%
onset time [2, 12]: 2.0 ± 0.8 min
max block [2, 13]: 100.0 ± 0.0%
onset time [2, 13]: 1.7 ± 0.5 min
25-75% recovery index ([2]; 10× ED90 rocuronium, saline one minute later (group 1)): 15.9 min and 15.9 ± 4.0 min
time to 25% recovery [2, 14]: 47.5 ± 7.0 min
time to 90% recovery [2, 14]: 78.3 min and 78.3 ± 15.2 min
1× ED90 dose ([2]; group 1, Mean ± SEM, n = 6): 178 ± 22 nmol/kg
1× ED90 dose ([2]; group 2, Mean ± SEM, n = 6): 169 ± 15 nmol/kg
Time to TOF ratio 0.9 ([3]; 0.6 mg·kg^−1 rocuronium bromide i.v., placebo at 3 minutes, time from placebo, n = 10): 35 to 69 min
